Common to all, as to assay type: in vivo, mouse
Assay [1] relates to male C57BL/6 mice administered with Escherichia coli. Briefly: Y-maze task, Escherichia coli-induced model. The settings on record: spontaneous alternation; E. coli model mice; donepezil 5 mg/kg.
Protocol: In order to evaluate spatial cognitive ability, a Y-maze task was performed. In a Y-shaped maze that has a length of 40 cm, a width of 4 cm, and a height of 12 cm and is closed on all sides, three paths were designated as A, B, and C. Then, a mouse was placed in the center and observed for 8 minutes, and the total number of entries entered was recorded. If the mouse entered three different branches in turn, the alternation number was counted as 1. […] The alternation number is defined as entering all three in turn, and the calculation for evaluation of spatial cognitive function was performed using the following equation.
Spontaneous alternation (%)=(total number of alternation/(total number of entries-2))×100
Assay [2] shares this test system. Kind of assay: Novel object recognition test (NORT), Escherichia coli-induced model. The note with it: recognition index; E. coli model mice; donepezil 5 mg/kg.
Protocol: The mouse was moved to the behavior observation room and acclimatized for 5 minutes. Thereafter, in a 3-minute exposure trial, two identical objects (1 set) were placed in a box 30 cm apart, and the time the mouse recognized the objects for 3 minutes was measured. […] The recognition index (%) is converted into the preference for new objects (time to recognize novel objects/total recognition time)×100.
For assay [3] the test system is unchanged. Kind of assay: Elevated plus maze (EPM) test, Escherichia coli-induced model. The settings on record: E. coli model mice; once a day for 5 days; NK112 samples 1×10^9 CFU, fluoxetine 1 mg/kg. The procedure: 5-week-old male C57BL/6 mice having a body weight of 19 to 21 g were divided into a normal group and an experimental group, with 6 mice per group, and acclimatized to the laboratory for 1 week, and then the experiment was performed. The experimental group was administered with Escherichia coli (1×10^9 CFU/mouse/day) orally once a day for 5 days, and the normal group was administered with physiological saline. […]
The elevated plus maze is an experimental apparatus to measure the level of anxiety, depression, or stress, etc. […] The movements of the mouse placed in the elevated plus maze were recorded in a room with a brightness of 20 lux and a video camera installed above.
Specifically, a C57BL/6 mouse was placed facing the open arm with its head in the exact center of the elevated plus maze, and the time and number of times it spent in the open arms and the enclosed arms for 5 minutes were measured. […]
Of the total experimental time, time spent in open arms (OT) was calculated as [time spent in open arms/(time spent in open arms+time spent in enclosed arms)]×100. Open arm entry (OE) was calculated as [open arm entry/(open arm entry+enclosed arm entry)]×100. […]

Assay [4] shares this test system. Briefly: Forced swimming test (FST), Escherichia coli-induced model. The settings on record: E. coli model mice; once a day for 5 days; NK112 samples 1×10^9 CFU, fluoxetine 1 mg/kg. The procedure:
(§1) 5-week-old male C57BL/6 mice having a body weight of 19 to 21 g were divided into a normal group and an experimental group, with 6 mice per group, and acclimatized to the laboratory for 1 week, and then the experiment was performed. The experimental group was administered with Escherichia coli (1×10^9 CFU/mouse/day) orally once a day for 5 days, and the normal group was administered with physiological saline.
(§2) Thereafter, 1×10^9 CFU heat-treated lactic acid bacteria (heat-killed NK112), 1×10^9 CFU lactic acid bacteria lysate supernatant (NK112 cytoplasmic component), 1×10^9 CFU lactic acid bacteria lysate precipitate (NK112 cell wall component), or positive control group drug (fluoxetine 1 mg/kg) was administered once a day for 5 days, respectively.
In the case of heat-treated lactic acid bacteria (heat-killed NK112), the precipitate obtained by centrifuging the lactic acid bacteria culture solution in MRS medium was suspended to 1×10^10 CFU/ml, and then heat-treated twice at 70° C. for 10 minutes each to prepare them. […]
A water tank with a height of 40 cm and a diameter of 20 cm was filled with water at a temperature of 25±1° C. to a height of 30 cm. […] The first 2 minutes were not measured as adaptation time, and the immobility time of the experimental animals was measured for the next 4 minutes. […]

Assay [5] shares this test system. Kind of assay: Tail suspension test (TST), Escherichia coli-induced model. The note with it: E. coli model mice; once a day for 5 days; NK112 samples 1×10^9 CFU, fluoxetine 1 mg/kg. The procedure: as §1
Thereafter, 1×10^9 CFU heat-treated lactic acid bacteria (heat-killed NK112), 1×10^9 CFU lactic acid bacteria lysate supernatant (NK112 cytoplasmic component), 1×10^9 CFU lactic acid bacteria lysate precipitate (NK112 cell wall component), or positive control group drug (fluoxetine 1 mg/kg) was administered once a day for 5 days, respectively. […]
According to the method of Steru et al. (Steru L, Chermat R, Thierry B, Simon P (1985) The tail suspension test: A new method for screening antidepressants in mice, Psychopharmacology, Vol. 85; pp. 367-370), A fixation apparatus was attached to the end of the mouse's tail about 1 cm, and then it was hung 50 cm away from the ground in a container with a diameter of 35 cm and a height of 50 cm. The immobility time of the experimental animals was measured for a total of 6 minutes.

The test system of another assay is corticosterone in blood. Kind of assay: Corticosterone in blood, Escherichia coli-induced model. The note with it: E. coli model mice; once a day for 5 days; NK112 samples 1×10^9 CFU, fluoxetine 1 mg/kg. The method, then:
as §1, §2
In addition, the concentration of corticosterone in blood, which induces anxiety, in each mouse was also measured and shown in Table 2 below.

With `COc1cc2c(cc1OC)C(=O)C(CC1CCN(Cc3ccccc3)CC1)C2` (stereo not drawn) [Donepezil, donepezil], in assay [1], the “Y-maze task (%)” value was determined as 63.2%. Moreover, the “NORT test (%)” value in assay [2] is 62.2%.

As for `CNCCC(Oc1ccc(C(F)(F)F)cc1)c1ccccc1` (stereo not drawn) [Fluoxetine, fluoxetine], the “EPM test (%, time spent in open arm)” value in assay [3] stood at 9.8%. Besides, in assay [4], the “FST test (%, immobility time)” value was 32.1%. Further, the “TST test (%, immbolity time)” value in assay [5] amounted to 33.5%. Also, in the assay on corticosterone in blood, the “Corticosterone in blood” value came to 202.5 ng/mL.

Source of the values: US20240325469A1, “COMPOSITION FOR PREVENTION OR TREATMENT OF COGNITIVE DYSFUNCTION AND INTESTINAL DYSFUNCTION, COMPRISING LACTOBACILLUS PARACASEI NK112, CUSCUTA AUSTRALIS EXTRACT, AND CUSCUTA JAPONICA EXTRACT” (MTHERA PHARMA CO., LTD., priority 2021, published 2024).
